We go through 18 compounds from US20100105727A1, “NOVEL BENZAMIDE DERIVATIVES AND PROCESS FOR THE PREPARTION THEREOF” (DONG-A-PHARM. CO., LTD., priority 2007, published 2010).

Like-named read-outs stand apart in the source and are kept apart here.

One series has as its target T1, human 5-HT4 receptor (Homo sapiens, UniProt Q13639).
T1 construct: expressed in transfected cells; host or cells: COS-7
Briefly: Binding affinity of compounds for 5-HT4 receptor (radioligand displacement, membrane lysates of COS-7 cells). The note with it: inhibition of specific binding of 0.595 nM [H3]-AGR113808; COS-7 cell membrane lysates expressing human 5-HT4 receptor. The procedure: For this purpose, COS-7 cells expressing the human 5-HT4 receptor were constructed and lysed to obtain cell membrane lysates which were then used in binding assay experiments. For binding assay, the membrane lysates were mixed and incubated with different concentrations of test materials and [H3]-AGR113808. […] After incubation was completed, the reaction products were collected in a GF/B glass fiber filter using a Packard cell harvester, and the bound radioactivity was then determined using a liquid cell scintillation counter (Packard TopCount NXT™, Perkin Elmer). Specific binding of the radioligand to the 5-HT4 receptor was calculated by subtracting the non-specific binding of the radioligand from the total radioligand binding. IC50 was calculated from % inhibition of specific binding of the radioligand to the 5-HT4 receptor, with respect to varying concentrations of the test materials.
In general terms: In a radioligand displacement assay an active substance lowers the binding of a labelled ligand.

Another series concerns male ICR mice. The procedure: In order to examine acute toxicity of compounds according to the present invention, the following experiment was carried out.
Over the entire experimental period of 2 weeks, the minimum lethal dose (MLD, mg/kg) of the compound was investigated by the observation of the mortality, body weight and clinical symptoms of animals.

In the next series the target is T2, hERG potassium channel (Homo sapiens, UniProt Q12809).
T2 construct: host or cells: HEK-293
T2 sequence (Q12809 whole entry): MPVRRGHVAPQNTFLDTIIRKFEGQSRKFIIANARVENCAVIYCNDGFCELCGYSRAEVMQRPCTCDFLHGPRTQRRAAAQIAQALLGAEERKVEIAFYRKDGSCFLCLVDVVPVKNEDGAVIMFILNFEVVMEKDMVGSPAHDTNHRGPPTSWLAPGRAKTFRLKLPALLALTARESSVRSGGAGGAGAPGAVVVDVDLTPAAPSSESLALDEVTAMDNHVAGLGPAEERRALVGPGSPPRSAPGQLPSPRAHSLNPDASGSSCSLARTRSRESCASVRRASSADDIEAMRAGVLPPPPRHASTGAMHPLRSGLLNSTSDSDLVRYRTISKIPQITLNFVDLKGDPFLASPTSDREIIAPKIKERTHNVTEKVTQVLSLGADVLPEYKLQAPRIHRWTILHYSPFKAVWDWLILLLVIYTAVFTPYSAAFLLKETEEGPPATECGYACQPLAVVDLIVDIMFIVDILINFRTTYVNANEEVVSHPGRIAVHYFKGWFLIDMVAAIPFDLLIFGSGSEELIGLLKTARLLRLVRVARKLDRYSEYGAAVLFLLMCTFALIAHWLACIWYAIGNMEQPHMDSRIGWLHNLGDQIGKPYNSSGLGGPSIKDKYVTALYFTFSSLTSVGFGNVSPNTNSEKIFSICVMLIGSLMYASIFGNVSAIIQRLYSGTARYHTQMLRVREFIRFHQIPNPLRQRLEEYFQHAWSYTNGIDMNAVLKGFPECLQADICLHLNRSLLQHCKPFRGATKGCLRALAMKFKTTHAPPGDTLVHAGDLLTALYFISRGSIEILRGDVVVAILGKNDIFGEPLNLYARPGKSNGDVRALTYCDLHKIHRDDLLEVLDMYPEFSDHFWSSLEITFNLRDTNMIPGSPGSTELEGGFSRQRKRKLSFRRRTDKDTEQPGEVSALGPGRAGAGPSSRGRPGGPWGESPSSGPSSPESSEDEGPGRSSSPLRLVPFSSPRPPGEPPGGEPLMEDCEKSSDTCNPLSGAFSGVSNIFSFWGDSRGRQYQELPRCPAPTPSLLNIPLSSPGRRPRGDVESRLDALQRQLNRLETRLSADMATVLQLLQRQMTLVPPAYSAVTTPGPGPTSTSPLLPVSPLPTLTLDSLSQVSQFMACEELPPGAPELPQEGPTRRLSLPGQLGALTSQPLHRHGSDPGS
Briefly: Binding affinity of compounds for hERG receptor ([H3]-Astemizole displacement, HEK-293 membrane lysates). The note with it: % inhibition of specific binding of 1.5 nM [H3]-Astemizole at 10 μM test material. The procedure:
Membrane lysates were obtained from mammalian HEK-293 cells expressing the hERG potassium channel and used in binding assay experiments. […] After incubation was completed, the radioactivity bound to the hERG K+ channel was counted. The affinity of each test material for the hERG K+ channel was calculated from % inhibition of specific binding of the radioligand to the hERG K+ channel, resulting from the action of the test material.
On the technique in general: Block of hERG is tested as a sign of cardiac risk.

[1] abbreviates: oral, single dose of 1 g/10 mL/kg in 1% hydroxypropylmethylcellulose, 5-week old male ICR mice, observed 2 weeks.
The mark [2] stands for this setting: male, ICR, mouse, in vivo, po, 2 weeks.

T1 sequence (Q13639 whole entry): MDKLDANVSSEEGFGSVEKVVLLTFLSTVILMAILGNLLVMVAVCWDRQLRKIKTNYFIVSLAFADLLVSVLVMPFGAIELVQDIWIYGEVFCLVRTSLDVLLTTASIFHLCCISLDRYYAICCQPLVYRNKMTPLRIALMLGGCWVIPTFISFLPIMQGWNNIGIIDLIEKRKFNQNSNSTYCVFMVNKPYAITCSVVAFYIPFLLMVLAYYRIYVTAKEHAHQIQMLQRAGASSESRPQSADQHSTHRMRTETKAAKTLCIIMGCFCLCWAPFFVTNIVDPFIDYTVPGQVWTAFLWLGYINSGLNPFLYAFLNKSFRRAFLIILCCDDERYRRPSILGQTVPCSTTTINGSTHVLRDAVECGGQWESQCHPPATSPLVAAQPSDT

One may read the IC50 as the concentration that gives 50% inhibition. A lower IC50 goes with inhibition by little substance. On human 5-HT4 receptor, `CCCOC(=O)N1CCC(CN2CC[C@H](NC(=O)c3cc(Cl)c(N)cc3OC)[C@H](OC)C2)CC1` (relative stereo) [Compound 6, propyl 4-[(cis-4-(4-amino-5-chloro-2-methoxybenzamido)-3-methoxypiperidin-1-yl)methyl]piperidine-1-carboxylate] displayed an IC50 of 94 nM. In the series with male ICR mice (setting [1]), the “Minimum lethal dose (MLD, mg/kg)” value was above 1000 mg/kg.

In the case of `COc1cc(N)c(Cl)cc1C(=O)N[C@@H]1CCN(CCc2noc(C)n2)C[C@@H]1OC` [Compound 55, (3S,4R)-4-amino-5-chloro-N-[1-(2-(5-methyl-1,2,4-oxadiazol-3-yl)ethyl)-3-methoxypiperidin-4-yl]-2-methoxybenzamide], the “hERG binding affinity (% at 10 μM)” value at hERG potassium channel is 31%.

As to `COc1cc(N)c(Cl)cc1C(=O)N[C@H]1CCN(CCc2noc(C)n2)C[C@H]1OC` (relative stereo) [Compound 54, cis-4-amino-5-chloro-N-[1-(2-(5-methyl-1,2,4-oxadiazol-3-yl)ethyl)-3-methoxypiperidin-4-yl]-2-methoxybenzamide], the “Minimum lethal dose (MLD, mg/kg)” value in the series on male ICR mice (setting [2]) is reported as above 1000 mg/kg.

With `COc1cc(N)c(Cl)cc1C(=O)N[C@H]1CCN(CC2CCN(C(=O)C(C)C)CC2)C[C@H]1OC` (relative stereo) [Compound 14, cis-4-amino-5-chloro-N-[1-((1-isobutyrylpiperidin-4-yl)methyl)-3-methoxypiperidin-4-yl]-2-methoxybenzamide], at human 5-HT4 receptor, the half-inhibitory concentration (IC50) stood at 141 nM. Also, the “Minimum lethal dose (MLD, mg/kg)” value with male ICR mice (setting [2]) is on record as above 1000 mg/kg.

Turning to `CCOC(=O)N1CCC(CN2CC[C@@H](NC(=O)c3cc(Cl)c(N)cc3OC)[C@@H](OC)C2)CC1` [Compound 2, ethyl 4-[((3S,4R)-4-(4-amino-5-chloro-2-methoxybenzamido)-3-methoxypiperidin-1-yl)methyl]piperidine-1-carboxylate], the half-inhibitory concentration (IC50) at human 5-HT4 receptor is 83 nM. Also, the “Minimum lethal dose (MLD, mg/kg)” value with male ICR mice (setting [1]) is above 1000 mg/kg.

Consider `COc1cc(N)c(Cl)cc1C(=O)N[C@H]1CCN(CCC(=O)Nc2cccc3ncccc23)C[C@H]1OC` (relative stereo) [Compound 56, cis-4-amino-5-chloro-N-[1-(3-oxo-3-(quinolin-5-yl-amino)propyl)-3-methoxypiperidin-4-yl]-2-methoxybenzamide], for which the concentration for half-maximal inhibition (IC50) on human 5-HT4 receptor worked out at 11 nM. In addition, the “Minimum lethal dose (MLD, mg/kg)” value with male ICR mice (setting [2]) is above 1000 mg/kg. For the same compound, the “hERG binding affinity (% at 10 μM)” value at hERG potassium channel turned out to be 23%.

Turning to `CCC(=O)N1CCC(CN2CC[C@H](NC(=O)c3cc(Cl)c(N)cc3OC)[C@H](OC)C2)CC1` (relative stereo) [Compound 17, cis-4-amino-5-chloro-N-[1-((1-propionylpiperidin-4-yl)methyl)-3-methoxypiperidin-4-yl]-2-methoxybenzamide], the “Minimum lethal dose (MLD, mg/kg)” value in the series with male ICR mice (setting [2]) was above 1000 mg/kg.

Consider `COc1cc(N)c(Cl)cc1C(=O)NC1CCN(CCCOc2ccc(F)cc2)CC1OC` (stereo not shown) [Cisapride, cisapride, reference compound], for which the “Minimum lethal dose (MLD, mg/kg)” value with male ICR mice (setting [2]) is above 1000 mg/kg.

The compound `COc1cc(N)c(Cl)cc1C(=O)N[C@H]1CCN(CCC(=O)Nc2cc(C)cc(C)n2)C[C@H]1OC` (relative stereo) [Compound 59, cis-4-amino-5-chloro-N-[1-(3-oxo-3-(4,6-dimethylpyridin-2-ylamino)propyl)-3-methoxypiperidin-4-yl]-2-methoxybenzamide] showed an IC50 at human 5-HT4 receptor of 140 nM. In addition, in the series on male ICR mice (setting [2]), the “Minimum lethal dose (MLD, mg/kg)” value is reported as above 1000 mg/kg.

Regarding `CCOC(=O)N1CCC(CN2CC[C@H](NC(=O)c3cc(Cl)c(N)cc3OC)[C@H](OC)C2)CC1` (relative stereo) [Compound 1, ethyl 4-[(cis-4-(4-amino-5-chloro-2-methoxybenzamido)-3-methoxypiperidin-1-yl)methyl]piperidine-1-carboxylate], at human 5-HT4 receptor, the IC50 is 230 nM. Besides, in the series with male ICR mice (setting [1]), the “Minimum lethal dose (MLD, mg/kg)” value is on record as above 1000 mg/kg.

The compound `COc1cc(N)c(Cl)cc1C(=O)N[C@H]1CCN(CCCCCC(=O)Nc2cc(C)cc(C)n2)C[C@H]1OC` (relative stereo) [Compound 60, cis-4-amino-5-chloro-N-[1-(6-oxo-6-(4,6-dimethylpyridin-2-ylamino)hexyl)-3-methoxypiperidin-4-yl]-2-methoxybenzamide] came in with an IC50 on human 5-HT4 receptor of 85 nM.

`COc1cc(N)c(Cl)cc1C(=O)N[C@H]1CCN(CC2CCN(S(C)(=O)=O)CC2)C[C@H]1OC` (relative stereo) [Compound 43, cis-4-amino-5-chloro-N-[1-((1-(methylsulfonyl)piperidin-4-yl)methyl)-3-methoxypiperidin-4-yl]-2-methoxybenzamide] displayed an IC50 on human 5-HT4 receptor of 167 nM.

`COc1cc(N)c(Cl)cc1C(=O)N[C@H]1CCN(CC2CCN(C(=O)N(C)C)CC2)C[C@H]1OC` (relative stereo) [Compound 64, 4-[cis-4-(4-amino-5-chloro-2-methoxybenzoylamino)-3-methoxy-piperidin-1-ylmethyl]-piperidine-1-carboxylic acid dimethylamide] showed a concentration for half-maximal inhibition (IC50) on human 5-HT4 receptor of 29 nM. In the series on male ICR mice (setting [2]), the “Minimum lethal dose (MLD, mg/kg)” value was above 1000 mg/kg.

Compound `CCCCOC(=O)N1CCC(CN2CC[C@H](NC(=O)c3cc(Cl)c(N)cc3OC)[C@H](OC)C2)CC1` (relative stereo) [Compound 7, butyl 4-[(cis-4-(4-amino-5-chloro-2-methoxybenzamido)-3-methoxypiperidin-1-yl)methyl]piperidine-1-carboxylate] showed an IC50 at human 5-HT4 receptor of 53 nM.

`COc1cc(N)c(Cl)cc1C(=O)N[C@H]1CCN(CC2CCN(C(=O)NC(C)C)CC2)C[C@H]1OC` (relative stereo) [Compound 63, 4-[cis-4-(4-amino-5-chloro-2-methoxybenzoylamino)-3-methoxy-piperidin-1-ylmethyl]-piperidine-1-carboxylic acid isopropylamide] returned a half-inhibitory concentration (IC50) on human 5-HT4 receptor of 25 nM. The “Minimum lethal dose (MLD, mg/kg)” value in the series on male ICR mice (setting [1]) is recorded as above 1000 mg/kg.

At human 5-HT4 receptor, `CCCCC(=O)N1CCC(CN2CC[C@H](NC(=O)c3cc(Cl)c(N)cc3OC)[C@H](OC)C2)CC1` (relative stereo) [Compound 22, cis-4-amino-5-chloro-N-[1-((1-pentanoylpiperidin-4-yl)methyl)-3-methoxypiperidin-4-yl]-2-methoxybenzamide] registered a concentration for half-maximal inhibition (IC50) of 73 nM.

On to `COc1cc(N)c(Cl)cc1C(=O)N[C@H]1CCN(CCCCCC(=O)Nc2ccc3[nH]ccc3c2)C[C@H]1OC` (relative stereo) [Compound 62, cis-4-amino-5-chloro-N-[1-(6-oxo-6-(1H-indol-5-ylamino)hexyl)-3-methoxypiperidin-4-yl]-2-methoxybenzamide], for which the IC50 on human 5-HT4 receptor was found to be 44 nM.

In turn, `COc1cc(N)c(Cl)cc1C(=O)N[C@H]1CCN(CC2CCN(C(=O)C(C)(C)C)CC2)C[C@H]1OC` (relative stereo) [Compound 29, cis-4-amino-5-chloro-N-[1-((1-pivaloylpiperidin-4-yl)methyl)-3-methoxypiperidin-4-yl]-2-methoxybenzamide] returned a half-maximal inhibitory concentration (IC50) on human 5-HT4 receptor of 34 nM. In addition, the “Minimum lethal dose (MLD, mg/kg)” value with male ICR mice (setting [2]) is listed as above 1000 mg/kg.
